Measured values taken from patent US8227406B2, “Antimicrobial peptides” (Dermagen AB, priority 2006, dated 2012).

Key:
[1] = tested on: Staphylococcus aureus ATCC29213; assay: Radial diffusion assay (RDA), S. aureus; format: cell-based; conditions: Table 1b; 10 mM Tris Hcl (pH 7.4)
Protocol: (§1) Peptides. Peptides were from Sigma-Genosys, generated by a peptide synthesis platform (PEPscreen®, Custom Peptide Libraries, SigmaGenosys). Yield was ˜1-6 mg, and peptide length 20 amino acids. MALDI-ToF Mass Spectrometry was perfomed on these peptides. Average Crude Purity of 20mers was ˜60%. Peptides were supplied lyophilized and in a 96-well tube rack. Prior to biological testing the PEPscreen peptides were diluted in dH2O (5 mM stock), and stored at −20 C. This stock solution was used for the subsequent experiments.
(§2) Eschericia coli ATCC25922, Staphylococcus aureus ATCC29213, and the fungal isolate Candida albicans ATCC90028 were obtained from the Department of Bacteriology, Lund University Hospital.
(§3) Radial diffusion assays (RDA) were performed essentially as described earlier (Lehrer, R. I., Rosenman, M., Harwig, S. S., Jackson, R. & Eisenhauer, P. (1991) Ultrasensitive assays for endogenous antimicrobial polypeptides, J Immunol Methods. 137, 167-73). Briefly, bacteria (E. coli, S. aureus) or fungi (C. albicans) were grown to midlogarithmic phase in 10 ml of full-strength (3% w/v) trypticase soy broth (TSB) (Becton-Dickinson, Cockeysville, Md.). The microorganisms were washed once with 10 mM Tris, pH 7.4. 4×10^6 bacterial cfu or 1×10^5 fungal cfu was added to 5 ml of the underlay agarose gel, consisting of 0.03% (w/v) TSB, 1% (w/v) low-electroendoosmosistype (Low-EEO) agarose (Sigma, St Louise Mo.) and a final concentration of 0.02% (v/v) Tween 20 (Sigma). The underlay was poured into a Ø 85 mm petri dish. After agarose solidified, 4 mm-diameter wells were punched and 6 μl of test sample was added to each well. Plates were incubated at 37° C. for 3 hours to allow diffusion of the peptides. The underlay gel was then covered with 5 ml of molten overlay (6% TSB and 1% Low-EEO agarose in dH2O). Antimicrobial activity of a peptide is visualized as a clear zone around each well after 18-24 hours of incubation at 37° C. for bacteria and 28° C. for Candida albicans. Other examples of peptides that were screened and found to show an increased effect against the above mentioned microorgansism are listed below. Some of the results are found in table 1c showing the effects against C. albicans, table 1d E. coli and table 1e S. aureus.

[2] = tested on: Eschericia coli ATCC25922; assay: Radial diffusion assay (RDA), E. coli; format: cell-based, Escherichia coli; conditions: Table 1b; 10 mM Tris Hcl (pH 7.4)
Protocol: as §1, §2, §3

Substance	RDA values (mm) S. aureus ATCC 29213 [1] [mm]	RDA values (mm) E. coli ATCC 25922 [2] [mm]
DDDDDDDDDD [Peptide T59]	0.00	0.00
DDDDDDDDDDWWW [Peptide T60]	0.00	0.00
GKHWWW [Peptide T30]	0.00	3.05
GKKNGKHWWW [Peptide T26]	1.76	7.47
HWWW [Peptide T32]	0.00	0.00
KGKKNGKHWWW [Peptide T25]	2.55	8.87
KHWWW [Peptide T31]	0.00	1.48
KKKKKKKKKK [Peptide T46]	1.32	5.94
KKKKKKKKKKWWW [Peptide T47]	4.46	7.48
KKKKKKKKKWWW [Peptide T48]	7.19	9.26
KKKKKKKKWWW [Peptide T49]	5.48	7.90
KKKKKKKWWW [Peptide T50]	4.90	7.82
KKKKKKWWW [Peptide T51]	4.16	8.12
KKKKKWWW [Peptide T52]	3.43	9.01
KKKKWWW [Peptide T53]	2.85	8.11
KKKWWW [Peptide T54]	2.02	4.93
KKNGKHWWW [Peptide T27]	1.68	7.56
KKWWW [Peptide T55]	1.01	2.95
KNGKHWWW [Peptide T28]	0.00	4.99
KNKGKKNGKH [Peptide T1]	0.00	2.56
KNKGKKNGKHGSGSPWWW [Peptide T61]	1.52	8.64
KNKGKKNGKHWWW [Peptide T2]	4.23	8.90
KNKGKKNGKHWWW [Peptide T23]	3.26	8.65
KNKGKKNGKHWWWWW [Peptide T13]	5.58	7.93
KNKGKKNGKWWW [Peptide T3]	4.07	9.16
KNKGKKNGKWWWWW [Peptide T14]	5.07	7.90
KNKGKKNGWWWWW [Peptide T15]	3.90	8.03
